Assay results from patent publication US20260085062A1, “NOVEL COMPOUNDS AS CK2 INHIBITORS” (Cambridge Enterprise Limited, priority 2022, published 2026).

Experiments:
[1] = molecular target: T1, intracellular CK2α (Homo sapiens, UniProt P19784); experiment: Cell-based NanoBRET assay for inhibitor binding to intracellular CK2α; conditions: HCT116 cells transiently transfected with CSNK2A2-NanoLuc fusion vector; Tracer K-5; 2 h; read-out: Assay 3: NanoBRET ™ assay for binding to intracellular CK2α
T1 construct: host or cells: HCT116 (ATCC CCL-247)
T1 sequence (P19784 whole entry, the tested form may be a part): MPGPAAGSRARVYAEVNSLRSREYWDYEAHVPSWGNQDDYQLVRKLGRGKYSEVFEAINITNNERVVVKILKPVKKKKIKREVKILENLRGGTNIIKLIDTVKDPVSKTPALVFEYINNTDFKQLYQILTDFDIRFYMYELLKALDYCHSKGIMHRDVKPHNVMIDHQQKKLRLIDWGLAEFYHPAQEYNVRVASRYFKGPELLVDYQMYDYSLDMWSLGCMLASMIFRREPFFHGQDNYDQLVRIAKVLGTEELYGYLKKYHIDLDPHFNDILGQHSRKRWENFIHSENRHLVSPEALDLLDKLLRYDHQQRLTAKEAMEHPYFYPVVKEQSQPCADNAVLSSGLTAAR
How it was run: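 Living cells expressing NanoLuc-CK2α fusion were given a fixed tracer concentration, and compounds competitively displaced the reversibly bound tracer. Donor (450 nm) and acceptor (610 or 630 nm) emissions were read; BRET ratio = (acceptor/donor)×1,000, giving apparent intracellular affinity.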

[2] = molecular target: T2, CK2α (Homo sapiens, UniProt P68400); experiment: Biochemical assay for inhibitors of CK2α kinase activity (ADP-Glo); conditions: 0.2 nM CK2α, 50 μM peptide substrate, 15 μM ATP, read-out: Assay 1: CK2α Enzyme IC50
T2 construct: CK2α (residues 2-329) was produced in Escherichia coli BL21 (DE3) for kinase activity screening; His6 (N, cleaved yes); made in house; host or cells: Escherichia coli BL21 (DE3)
T2 sequence (P68400 2-329): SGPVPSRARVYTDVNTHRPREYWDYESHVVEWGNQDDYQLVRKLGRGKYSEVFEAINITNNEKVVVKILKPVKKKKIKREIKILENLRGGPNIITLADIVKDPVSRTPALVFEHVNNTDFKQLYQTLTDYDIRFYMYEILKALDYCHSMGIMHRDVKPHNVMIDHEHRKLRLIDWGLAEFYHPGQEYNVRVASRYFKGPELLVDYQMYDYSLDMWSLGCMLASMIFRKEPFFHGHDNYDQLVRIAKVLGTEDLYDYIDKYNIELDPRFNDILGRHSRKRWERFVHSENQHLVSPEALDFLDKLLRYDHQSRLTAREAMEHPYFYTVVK

[3] = molecular target: T3, CLK2 (Homo sapiens, UniProt P49760); experiment: Biochemical assay for inhibitors of CLK2 kinase activity (ADP-Glo); conditions: 20 nM CLK2, 50 μM peptide substrate, 100 μM ATP, read-out: Assay 2: CLK2 Enzyme IC50
T3 construct: purchased Carna Biosciences 04-127
T3 sequence (P49760 whole entry): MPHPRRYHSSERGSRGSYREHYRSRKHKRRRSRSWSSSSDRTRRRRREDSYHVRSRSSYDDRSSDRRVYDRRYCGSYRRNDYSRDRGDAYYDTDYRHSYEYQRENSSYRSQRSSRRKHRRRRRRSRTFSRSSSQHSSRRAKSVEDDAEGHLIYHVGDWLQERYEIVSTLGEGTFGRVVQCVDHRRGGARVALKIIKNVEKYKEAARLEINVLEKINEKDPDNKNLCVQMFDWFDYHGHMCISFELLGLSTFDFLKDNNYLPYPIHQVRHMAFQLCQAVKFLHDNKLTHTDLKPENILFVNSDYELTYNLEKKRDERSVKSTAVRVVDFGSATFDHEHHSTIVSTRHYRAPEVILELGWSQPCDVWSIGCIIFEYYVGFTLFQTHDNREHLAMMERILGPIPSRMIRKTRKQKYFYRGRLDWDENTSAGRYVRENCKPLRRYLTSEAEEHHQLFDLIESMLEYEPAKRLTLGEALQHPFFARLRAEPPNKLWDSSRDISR

Compound | IC50 [1] | IC50 [2] | IC50 [3]
N#CCc1cc(F)cc(CNCCCCOC2CN(c3cc(-n4cnnc4)cc4[nH]ncc34)C2)c1 [Example 103, 2-(3-(((4-((1-(6-(4H-1,2,4-triazol-4-yl)-1H-indazol-4-yl)azetidin-3-yl)oxy)butyl)amino)methyl)-5-fluorophenyl)acetonitrile] | 10700 nM | 26.5 nM | 129 nM
O=C(O)c1cc(NCCOCCCCNCc2cc(F)c(OC(F)(F)F)c(F)c2)c2cn[nH]c2c1 [Example 197, 4-((2-(4-((3,5-difluoro-4-(trifluoromethoxy)benzyl)amino)butoxy)ethyl)amino)-1H-indazole-6-carboxylic acid] | > 3000 nM | > 1000 nM | > 50000 nM
O=C(CCNCc1cccc(CO)c1)NCCCNc1cc(-n2cnnc2)cc2[nH]ncc12 [Example 35, N-(3-((6-(4H-1,2,4-triazol-4-yl)-1H-indazol-4-yl)amino)propyl)-3-((3-(hydroxymethyl)benzyl)amino)propanamide] | > 50000 nM | 17.5 nM | 112 nM
O=C(CCNCc1ccc(-c2ccccc2)c(Cl)c1)NCCCNc1cc(-c2cc[n+]([O-])cc2)cc2[nH]ncc12 [Example 30, 4-(4-((3-(3-(((2-chloro-[1,1′-biphenyl]-4-yl)methyl)amino)propanamido)propyl)amino)-1H-indazol-6-yl)pyridine 1-oxide] | 816 nM | 0.99 nM | 2560 nM
c1cc(-c2cc(OCCOCCCCNCc3cc4cc(OC5CCC5)ccc4[nH]3)c3cn[nH]c3c2)cnn1 [Example 55, N-((5-cyclobutoxy-1H-indol-2-yl)methyl)-4-(2-((6-(pyridazin-4-yl)-1H-indazol-4-yl)oxy)ethoxy)butan-1-amine] | 149 nM | 1.25 nM | 4740 nM
O=C(CCNCc1ccc(-c2ccccc2)c(Cl)c1)NCCC(=O)Nc1cc(-n2cnnc2)cc2[nH]ncc12 [Example 12, N-(6-(4H-1,2,4-triazol-4-yl)-1H-indazol-4-yl)-3-(3-(((2-chloro-[1,1′-biphenyl]-4-yl)methyl)amino)propanamido)propanamide] | 6830 nM | 0.6 nM | 612 nM
O=C(CCNCCCNCc1ccc(OC(F)(F)F)c(Cl)c1)Nc1cc(-n2cnnc2)cc2[nH]ncc12 [Example 66, N-(6-(4H-1,2,4-triazol-4-yl)-1H-indazol-4-yl)-3-((3-((3-chloro-4-(trifluoromethoxy)benzyl)amino)propyl)amino)propanamide] | 15600 nM | 176 nM | 1000 nM
FC(F)(F)Oc1ccc(CNCCCCNCCNc2cc(-n3cnnc3)cc3[nH]ncc23)cc1Cl [Example 24, N^1-(2-((6-(4H-1,2,4-triazol-4-yl)-1H-indazol-4-yl)amino)ethyl)-N^4-(3-chloro-4-(trifluoromethoxy)benzyl)butane-1,4-diamine] | 591 nM | 0.78 nM | 344 nM
O=C(CCNCc1ccc(-c2ccccc2)c(Cl)c1)NCCCNc1cc(-n2cnnc2)cc2[nH]ncc12 [Example 11, N-(3-((6-(4H-1,2,4-triazol-4-yl)-1H-indazol-4-yl)amino)propyl)-3-(((2-chloro-[1,1′-biphenyl]-4-yl)methyl)amino)propanamide] | 249 nM | 0.29 nM | 31.7 nM
O=C(CCNCc1ccc(OC(F)(F)F)c(Cl)c1)NCCCNc1cc(-n2ccnn2)cc2[nH]ncc12 [Example 161, N-(3-((6-(1H-1,2,3-triazol-1-yl)-1H-indazol-4-yl)amino)propyl)-3-((3-chloro-4-(trifluoromethoxy)benzyl)amino)propanamide] | 193 nM | 2.02 nM | 667 nM
FC(F)(F)c1ccc2[nH]c(CNCCCCOCCNc3cc(-c4ccncn4)cc4[nH]ncc34)cc2c1 [Example 95, 6-(pyrimidin-4-yl)-N-(2-(4-(((5-(trifluoromethyl)-1H-indol-2-yl)methyl)amino)butoxy)ethyl)-1H-indazol-4-amine] | 336 nM | 6.56 nM | 203 nM
c1cc2[nH]c(CNCCCCOC3CN(c4cc(-n5cnnc5)cc5[nH]ncc45)C3)cc2cc1OC1CCC1 [Example 124, 4-((1-(6-(4H-1,2,4-triazol-4-yl)-1H-indazol-4-yl)azetidin-3-yl)oxy)-N-((5-cyclobutoxy-1H-indol-2-yl)methyl)butan-1-amine] | 1990 nM | 7.44 nM | 134 nM
FC(F)(F)Oc1ccc(CNCCc2ncc(CCNc3cc(-n4cnnc4)cc4[nH]ncc34)o2)cc1Cl [Example 64, N-(2-(2-(2-((3-chloro-4-(trifluoromethoxy)benzyl)amino)ethyl)oxazol-5-yl)ethyl)-6-(4H-1,2,4-triazol-4-yl)-1H-indazol-4-amine] | 1840 nM | 7.88 nM | 350 nM
O=C(CCNCc1cc2ccc(Cl)cc2[nH]1)NCCCNc1cc(-n2cnnc2)cc2[nH]ncc12 [Example 37, N-(3-((6-(4H-1,2,4-triazol-4-yl)-1H-indazol-4-yl)amino)propyl)-3-(((6-chloro-1H-indol-2-yl)methyl)amino)propanamide] | 960 nM | 0.78 nM | 30.7 nM
N#CCc1cccc(CNCCC(=O)NCCCNc2cc(-n3cnnc3)cc3[nH]ncc23)c1 [Example 47, N-(3-((6-(4H-1,2,4-triazol-4-yl)-1H-indazol-4-yl)amino)propyl)-3-((3-(cyanomethyl)benzyl)amino)propanamide] | 12000 nM | 2.65 nM | 133 nM
OCCOc1cc(CNCCCCOCCNc2cccc3[nH]ncc23)cc(OC(F)(F)F)c1 [Example 202, 2-(3-(((4-(2-((1H-indazol-4-yl)amino)ethoxy)butyl)amino)methyl)-5-(trifluoromethoxy)phenoxy)ethan-1-ol] | > 3000 nM | 216 nM | 23300 nM
N#CCc1cc(CNCCCCOC2CN(c3cc(-c4cnoc4)cc4[nH]ncc34)C2)cc(C(F)(F)F)c1 [Example 145, 2-(3-(((4-((1-(6-(isoxazol-4-yl)-1H-indazol-4-yl)azetidin-3-yl)oxy)butyl)amino)methyl)-5-(trifluoromethyl)phenyl)acetonitrile] | 1730 nM | 25.4 nM | 186 nM
COc1cc(-c2cc(NCCOCCCCNCc3cc4cc(C(F)(F)F)ccc4[nH]3)c3cn[nH]c3c2)ccn1 [Example 87, 6-(2-methoxypyridin-4-yl)-N-(2-(4-(((5-(trifluoromethyl)-1H-indol-2-yl)methyl)amino)butoxy)ethyl)-1H-indazol-4-amine] | 1300 nM | 12.3 nM | 1760 nM
CNc1n[nH]c2cc(-n3cnnc3)cc(NCCOCCCCNCc3cc(F)c(OC(F)(F)F)c(F)c3)c12 [Example 190, N4-(2-(4-((3,5-difluoro-4-(trifluoromethoxy)benzyl)amino)butoxy)ethyl)-N3-methyl-6-(4H-1,2,4-triazol-4-yl)-1H-indazole-3,4-diamine] | 74 nM | 1.45 nM | 1100 nM
N#Cc1cc(CNCCC(=O)NCCCNc2cc(-n3cnnc3)cc3[nH]ncc23)ccc1OC1CCC1 [Example 39, N-(3-((6-(4H-1,2,4-triazol-4-yl)-1H-indazol-4-yl)amino)propyl)-3-((3-cyano-4-cyclobutoxybenzyl)amino)propanamide] | 2080 nM | 0.28 nM | 63.3 nM
FC(F)(F)Oc1ccc(CNCCCCOCCNc2cc(-c3ccnnc3)cc3[nH]nnc23)cc1Cl [Example 99, N-(2-(4-((3-chloro-4-(trifluoromethoxy)benzyl)amino)butoxy)ethyl)-6-(pyridazin-4-yl)-1H-benzo[d][1,2,3]triazol-4-amine] | 1010 nM | 20.1 nM | 28000 nM
O=C(CCNCc1ccc(OC(F)(F)F)c(Cl)c1)NCCCNc1cc(-c2ccncc2)nc2[nH]ncc12 [Example 185, 3-((3-chloro-4-(trifluoromethoxy)benzyl)amino)-N-(3-((6-(pyridin-4-yl)-1H-pyrazolo[3,4-b]pyridin-4-yl)amino)propyl)propanamide] | 106 nM | 0.76 nM | 787 nM
O=C(COCCCCNCc1ccc(OC(F)(F)F)c(Cl)c1)Nc1cc(-n2cnnc2)cc2[nH]ncc12 [Example 48, N-(6-(4H-1,2,4-triazol-4-yl)-1H-indazol-4-yl)-2-(4-((3-chloro-4-(trifluoromethoxy)benzyl)amino)butoxy)acetamide] | 2750 nM | 20.3 nM | 993 nM
O=C(CCNCc1ccc(OC(F)(F)F)c(Cl)c1)NCCCNc1cc(-c2ncns2)cc2[nH]ncc12 [Example 183, N-(3-((6-(1,2,4-thiadiazol-5-yl)-1H-indazol-4-yl)amino)propyl)-3-((3-chloro-4-(trifluoromethoxy)benzyl)amino)propanamide] | 145 nM | 2.39 nM | 907 nM
